Results taken from doi:10.1101/2025.10.10.681740, “Distinct Filament Conformation for Receptor-Bound Amyloid-ß from Alzheimer’s Disease Brain” (bioRxiv, 2025).
“Also recorded” adds a separate entry of the source.

Tests used:
[1] = design: method as in 3 sources, one per row (each row's own in cited_ref): ref 13 = [13]; PMID 9600986; doi:10.1073/pnas.95.11.6448; 13. Lambert MP , Diffusible, nonfibrillar ligands derived from Abeta1-42 are potent central nervous system neurotoxins . Proc Natl Acad Sci U S A 95 , 6448 – 6453 ( 1998 ). 9600986 10.1073/pnas.95.11. ||| ref 15 = [15]; PMID 26018073; doi:10.1074/jbc.M115.643577; 15. Kostylev MA , Prion-Protein-interacting Amyloid-beta Oligomers of High Molecular Weight Are Tightly Correlated with Memory Impairment in Multiple Alzheimer Mouse Models . J Biol Chem 290 , 17415 – ||| ref 14 = [14]; PMID 19216516; doi:10.1021/bi802046n; 14. Yu L , Structural characterization of a soluble amyloid beta-peptide oligomer . Biochemistry 48 , 1870 – 1877 ( 2009 ). 19216516 10.1021/bi802046n; settings: cited from earlier work
IC16 antibody = assay: IC16 capture ELISA; format: binding
PrP^C [2] = system: PrP^C
PrP^C [3] = settings: cited from earlier work
Aß42 [4] = assay: Thioflavin-T polymerization of Aß42; format: biochemical
PrP^C [5] = system: PrP^C; remark: listed apart in the source
anti-Aß antibodies = assay: Immunoblot epitope profiling, receptor-bound vs sarkosyl-insoluble Aß; format: binding; settings: n=4 AD brains; for amino-terminal epitope immunoreactivity, receptor-bound vs sarkosyl-insoluble: normalized to mid-region antibody 4G8, HFIP-monomerized
From the text: The tubes were then opened and kept in the fume hood overnight at room temperature to evaporate the HFIP. The remaining protein films were resuspended in 1X Laemmli buffer supplemented with 8 M urea. The resulting samples were separated on 4-20% gradient Criterion Tris-Glycine gels (BioRad), transferred onto the nitrocellulose membranes, blocked with Rockland fluorescent Western Blot blocking buffer and immunoprobed with the appropriate detection antibodies overnight at 4C, washed in PBST, incubated the IRdye conjugated secondary antibodies (LiCor) for 1 h at RT and imaged on the near-infrared scanner (LiCor Odyssey). Both primary and secondary antibody were diluted in Rockland fluorescent Western Blot blocking buffer. The immunoblot data quantitation was performed using the LiCor ImageStudio software.

[6] = system: human iPSC-derived cortical excitatory neurons; assay: Synapse loss in human iPSC-derived cortical neurons; format: cell-based; settings: 7 days
Method: Human neurons derived from induced pluripotent stem cells (iPSCs) with Neurogenin2 (Ngn2) stably integrated under doxycycline control were prepared and cultured as described. Poly-D-Lysine-coated 384 well plates (Corning # 354663) were seeded with 2,000 cells in 50 μl of Classic Neuronal Media (CNR: 50% DMEM/F12 (Gibco), 50% Neurobasal-A (Gibco), 0.5X Glutamax (Gibco), 1X MEM Non-Essential Amino Acids Solution (Gibco), 0.5X B27 supplement (Gibco), 0.5X N-2 supplement (Gibco), 10 ng/ml BDNF (PeproTech), 10 ng/ml NT-3 (PeproTech), 1 μg/ml mouse Laminin (Gibco)) containing 2 μg/ml doxycycline hydrochloride (Sigma). On DIV 7 and 14, 50 μl of CNR without doxycycline hydrochloride was added to each well. Every week after that, 30 μl of media was removed from each well and replaced with 30 μL of fresh media. Cells were grown for at least 60 days before treatment with receptor-bound Aßo. […]
Image analysis was performed using ImageXpress built in analysis software, MetaXpress. […] To measure synapsin1/2 density on MAP2, the number of synaptic puncta overlapping with the MAP2 mask were counted and then divided by the area of the MAP2 mask. To measure Synapsin1/2 colocalized with homer1b/c density on MAP2, first, only the round objects of Synapsin1/2 and Homer1b/c colocalized with each other that also overlap with MAP2 were counted and divided by the MAP2 area. […]

Aß42 [7] = assay: Filament length at end of polymerization reactions (negative stain EM)
[8] = Monomer count from cryo-EM rung spacing and length; format: physicochemical; settings: 4.75 Å rung spacing, 65 nm length, two monomers per rung
From the text: Data sets were processed using standard amyloid helical reconstruction procedures implemented in RELION 4.0 [49]. Dose-fractionated micrograph movies were corrected for beam-induced motion using the RELION’s own implementation of motion correction. Contrast transfer function (CTF) parameters were estimated from the motion-corrected micrographs using CTFFIND-4.1 [51]. The start-end coordinates of the Aß filaments were manually marked in the aligned micrographs using RELION 4.0. Segments were extracted with an inter-box distance of 12-Å, a helical rise of 4.75 Å and using a box size of 200 pixels with 1.068 Å per pixel. Extracted segments were subjected to several rounds of reference free two-dimensional (2D) classification to remove suboptimal segments and to select for segments showing detailed features along the filament axis. A three-dimensional (3D) cylinder was generated using the “relion_helix_toolbox” utility and used as reference for an initial 3D classification of the helical segments retained after the 2D classification steps. The initial 3D classification performed on the set of optimal 2D-segments assumed a helical rise of 4.75 Å and a value of the helical twist as estimated from the crossover distances in the 2D class averages. […]

[9] = Size exclusion chromatography with PLISA readout; format: physicochemical; settings: Superdex 200, purified Aß spiked in control brain TBS lysate, PLISA of fractions
Aß = format: biochemical, mouse
[10] = Electron microscopy length of Aß assemblies; format: physicochemical; settings: for length (mean ± sd): electron microscopy; for filament length, overall: human AD brain
receptor-bound Aß = assay: Lecanemab capture ELISA; format: binding, human; settings: Lecanemab coated plate, D54D2 detection; Extended Data Fig. 1: 5 μg/mL coating, vs isotype control and no antibody wells
Aß species = settings: reported; cited from earlier work
From the text: For this comparison, the PSCMA-released Aß pool prior to antibody affinity retention was compared to PSCMA-resistant material containing plaque-associated Aß. The PSCMA-resistant material was further extracted with sarkosyl, and the sarkosyl-insoluble pellet resuspended for immunoblot. The Aß ...

## Aß42 globulomer: Globulomers of Aß42 are prepared in SDS and then isolated as stable 12-mers
[1]; prepared in SDS
  assembly state: stable 12-mers
IC16 antibody
  affinity/activity in IC16 capture ELISA: much higher activity
PrP^C [2]
  PrP^C binding, summary: binds
  apparent avidity for PrP^C in PLISA: similar

## Aß42 monomers: HFIP-monomerized synthetic Aß42
PrP^C [2]
  apparent avidity for PrP^C in PLISA: nil or at least two orders of magnitude lower

## amyloid-ß [Aß]
PrP^C [3]
  off-rate from PrP^C: slow off-rate with a half-life of days

## amyloid-ß derived diffusible ligands [synthetic Aß42 ADDL]
[1]; no reference at place
  apparent MR: 500,000
[1]; synthetic Aß42 in F12 media, metastable spherical assemblies
  assembly size: 500 kDa
PrP^C [2]
  PrP^C binding, summary: binds

## cellular prion protein [PrP^C]
Aß42 [4]
  effect on Aß42 amyloid filament formation: inhibits Aß42 amyloid filament formation
Aß42 [4]; pH 7.4
  effect on rate of Aß42 polymerization seeded by fibrils: reduced the rate of Aß42 polymerization or Aß42 polymerization seeded by fibrils
  effect on rate of Aß42 polymerization, unseeded: reduced the rate of Aß42 polymerization

## receptor-bound Aß: PSCMA-released, IC16-immunopurified Aß filament pool from Alzheimer's disease brain
PrP^C [5]
  distance of PrP^C-associated gold particles from filament tips: ≤ 5 nm
anti-Aß antibodies; carboxyl terminus, normalized to mid-region antibody
  Aß40 reactivity, receptor-bound vs fibrillary pool: greater for Aß40 in the receptor-bound pool
anti-Aß antibodies
  amino-terminal epitope immunoreactivity, receptor-bound vs sarkosyl-insoluble: five-fold enriched
anti-Aß antibodies; listed as Receptor-bound Aß
  amino-terminal epitope immunoreactivity, receptor-bound vs sarkosyl-insoluble: significant increase in the immunoreactivity with antibodies directed against N-terminus of Aß
anti-Aß antibodies; normalized to mid-region antibody
  pyroglutamylated Aß reactivity, receptor-bound vs insoluble fibrillary Aß: present equally in both receptor-bound Aß and insoluble fibrillary Aß
[6]; 160 pM Brain A, 80 pM Brain B, 16 pM Brain C, vs control brain fraction
  dendrite density (MAP2 area): does not change
[6]; 16-160 pM assembly (4-40 nM monomer equivalent), three AD brains vs control brain fraction
  synaptic density (Synapsin1/Homer1b/c overlap at MAP2 dendrites): significantly reduced; also recorded: potently suppresses synapse density
Aß42 [4]; 20 nM monomer equivalent seeds, 5 μM Aß42, vs no seeds
  maximal ThT fluorescence: reduced the maximal fluorescence achieved
Aß42 [4]; 20 nM monomer equivalent, 5 μM Aß42, n=19 experiments, Brains A-D, vs no seeds
  effect on Aß42 polymerization rate as seed: significantly slowed polymerization
Aß42 [7]; 5 μM Aß42, without seeds or with 20 nM seeds, negative stain EM
  length of filaments at completion of polymerization: 200-500 nm
Aß42 [7]; 4 different brains, 20 nM seeds, 5 μM Aß42
  filament length compared with other seeds / no seeds: significantly shorter
[8]
  number of monomers per assembly: about 300
[9]
  size by migration of globular proteins: ~650 kDa
PrP^C [2]
  PrP^C binding, summary: binds
  apparent avidity for PrP^C in PLISA: binds PrP^C with the affinity similar to that for synthetic Aß oligomeric preps (F12)
Aß
  amount detected in APP/PS1, Prnp−/− mice (vs WT Prnp background): Significantly lower amount
  reduction of Aß released by PSCMA when PrP^C was absent: about 50%
[10]; second of three AD brains
  length (mean ± sd): 70±24.4 nm
[10]; third of three AD brains
  length (mean ± sd): 71±29.2 nm
[10]
  filament length, overall: about 65 nm
[10]; listed as Receptor-bound amyloid-ß
  filament length, overall: 65 nm

B1: Lecanemab: FDA approved anti-Aß antibody (antibody, chains of the INN, looked up, V domains shown)
VH: EVQLVESGGGLVQPGGSLRLSCSASGFTFSSFGMHWVRQAPGKGLEWVAYISSGSSTIYYGDTVKGRFTISRDNAKNSLFLQMSSLRAEDTAVYYCAREGGYYYGRSYYTMDYWGQGTTVTVSS
VL: DVVMTQSPLSLPVTPGAPASISCRSSQSIVHSNGNTYLEWYLQKPGQSPKLLIYKVSNRFSGVPDRFSGSGSGTDFTLRISRVEAEDVGIYYCFQGSHVPPTFGPGTKLEIK
receptor-bound Aß
  affinity / reactivity for receptor-bound Aß: high affinity for the receptor-bound Aß species; also recorded: receptor-bound Aß is recognized by this antibody; also recorded: binds to ELISA plates coated with 5 μg/mL Lecanamab but not to wells coated with isotype control or to no antibody wells
Aß species
  binding preference among Aß species: preferential affinity for oligomeric and protofibrillary Aß species, with less avidity for Aß filaments and minimal interaction with monomeric Aß
